The results in this text go back to patent US20260083687A1, “COMPOUNDS FOR REDUCING LACTATION AND IMPROVING HEALTH” (AHV International B.V., priority 2022, published 2026).

For the assay, the system named is cows. Put plainly: Administering of DPD at abrupt dry off and occurrence of mastitis / new intramammary infections, milk leakage, SCC (Example 10). Type of assay: in vivo, cow. As to the method: Study design. Cow description. 59 cows from 5 different farms were used for this study. The cows were randomly divided into 3 groups: • Control group; • DPD Treatment group 1: DC Liquid (500 mL) group (composition with 80 ml pure dipropyl disulfide); and • DPD Treatment group 2: DPD enriched onion Extract (OE) bolus (150 mL) group (corresponding to 80 ml pure dipropyl disulfide).
The control group consisted of 24 cows with an average milk production prior to dry off of 17.23 liters. […] The average lactation of the control group was 2.1 and they had on average a dry period of 48 days (10 animals in 1st lactation, 4 in 2nd lactation, 6 in 3th lactation and 4 in 4th lactation). 50% of all cows in the control group were observed leaking milk regardless of milk production prior to dry off, and the incidence goes up to 63% if the cows with production below or equal to 12.5 liters prior to dry off or discarded.
The DC Liquid treatment group consisted of 18 cows with an average mp prior to dry off of 21.61 liters (1 cow with a mp lower than 12.5 liters, lowest 11.40 liters and highest 32 liters). The average lactation of the DC Liquid group was 1.9 with 11 cows in 1st lactation, 2 cows in 2nd, 3 cows in 3th, and 2 cows in 5th lactation. The average dry period of this group was 49 days.
The DPD enriched OE bolus treatment group consisted of 17 cows with an average mp prior to dry off of 20.6 liters (lowest 13.8 and high 32 liters) and an average lactation of 2.2 (6 cows in 1 s lactation, 4 cows in 2nd, 4 cows in 3th, and 3 cows in 4th lactation). 1 cow dropped out during the dry period because of non-related lameness issues. The dry period of this group was on average 46 days.
After the last milking the cows received the dry off protocol according to the farms protocols. The DPD treatment groups received a DPD treatment in the form of a bolus dose by bolus shooter in the rumen. Both treatment groups consisted of treatment with 80 ml DPD. In all cases abrupt dry-off was applied, with no restriction in number of milking nor change of feed prior to dry-off. Before moving to the dry pen all cows underwent hoof trimming. During the dry period and after calving the cows were monitored for signs of mastitis. Before the cows were 30 days in lactation a SCC was determined to evaluate the dry period.
Intramammary infections (IMI) were defined as signs of a clinical mastitis (ao. Flocks, watery milk, coloring of milk) cases during the dry period and in the first 30 days in lactation or a rise in individual somatic cell count (ISCC) from before to after the dry period (threshold: 200,000 cells/mL) or both.

For the compound `CCCSSCCC` [DPD, di-n-propyl disulfide], the “outcome of animals that entered the dry period diagnosed with an IMI” value (3 animals (2 DC Liquid, 1 DPD enriched OE)) is “all 3 recovered at the start of the new lactation”. In addition, where the note is “80 ml DPD at abrupt dry off”, the “animals diagnosed with a new IMI after calving” value amounted to 21% and the “cases with a decrease of SCC after calving” value came out at 61%. Besides, the “incidence of milk leakage” value (80 ml DPD at abrupt dry off, DPD treatment groups 1 and 2 combined) is recorded as 17%. In addition, for the setting “DPD treated groups combined vs control group”, the “reduction of risk of new IMI” value was 42%. Moreover, for the setting “DPD treatment groups combined vs control group”, the “reduction of incidence of milk leakage” value is 73%. Also, the “cows with signs of mastitis (flocks in milk)” value (after calving, DPD treatment group) came out at 1 cow. Besides, the “cows with signs of clinical mastitis” value (during the dry period, DPD treatment group) is given as 1 cow.
